# Experimental data published in PubChem BioAssay (NCI).
#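 Tested at 5 concentrations; 48 h exposure; 96-well plates; endpoints linearly interpolated, else capped at highest concentration. GI50 marks 50% less growth. TGI: concentration producing complete growth inhibition.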
# What was measured:
# Assay in all cases: inhibition of tumour cell growth, NCI panel, 48 h
# SF-268 CNS = test system: SF-268 CNS
# HT29 colon = test system: HT29 colon
# KM12 colon = test system: KM12 colon
# UO-31 renal = test system: UO-31 renal
# A549 NSCLC = test system: A549 NSCLC
# IGROV1 ovarian = test system: IGROV1 ovarian
# ACHN renal = test system: ACHN renal
# OVCAR-3 ovarian = test system: OVCAR-3 ovarian
# SK-OV-3 ovarian = test system: SK-OV-3 ovarian
# LOX IMVI melanoma = test system: LOX IMVI melanoma
# 786-0 renal = test system: 786-0 renal
# MDA-N = test system: MDA-N
smiles,measurement,setting,value
C/C(=N\NC(=O)c1ccccc1O)c1cccc(/C(C)=N/NC(=O)c2ccccc2O)n1.O=S(=O)([O-])[O-].[Fe+2],TGI,SF-268 CNS,> 100 µM
same,TGI,HT29 colon,> 100 µM
same,TGI,KM12 colon,> 100 µM
same,GI50,UO-31 renal,> 100 µM
same,TGI,UO-31 renal,> 100 µM
same,TGI,A549 NSCLC,> 100 µM
same,GI50,IGROV1 ovarian,47.7 µM
same,TGI,IGROV1 ovarian,> 100 µM
same,TGI,ACHN renal,> 100 µM
same,GI50,OVCAR-3 ovarian,> 100 µM
same,TGI,OVCAR-3 ovarian,> 100 µM
same,TGI,SK-OV-3 ovarian,> 100 µM
CCOC(=O)c1nc2cc(C(F)(F)F)ccc2nc1Nc1ccc(C(=O)OC)s1,TGI,SF-268 CNS,> 100 µM
same,TGI,HT29 colon,> 100 µM
same,TGI,KM12 colon,> 100 µM
same,TGI,LOX IMVI melanoma,> 100 µM
same,TGI,UO-31 renal,> 100 µM
same,TGI,A549 NSCLC,> 100 µM
same,TGI,IGROV1 ovarian,> 100 µM
same,TGI,ACHN renal,> 100 µM
same,TGI,OVCAR-3 ovarian,48.7 µM
same,TGI,786-0 renal,84.8 µM
same,TGI,SK-OV-3 ovarian,> 100 µM
Cc1cc2nc3ccccc3n2c2nc(N)ccc12,TGI,SF-268 CNS,> 100 µM
same,TGI,HT29 colon,> 100 µM
same,TGI,KM12 colon,> 100 µM
same,TGI,LOX IMVI melanoma,> 100 µM
same,TGI,MDA-N,> 100 µM
same,TGI,UO-31 renal,> 100 µM
same,TGI,A549 NSCLC,> 100 µM
same,TGI,IGROV1 ovarian,> 100 µM
same,TGI,ACHN renal,> 100 µM
same,TGI,OVCAR-3 ovarian,> 100 µM
same,TGI,786-0 renal,> 100 µM
CCCCCc1c(CCCC)c(=O)[nH]c2nc(NC(=O)CCCC)ccc12,TGI,SF-268 CNS,> 100 µM
same,TGI,KM12 colon,> 100 µM
same,TGI,LOX IMVI melanoma,> 100 µM
same,TGI,MDA-N,> 100 µM
same,TGI,UO-31 renal,> 100 µM
same,TGI,A549 NSCLC,> 100 µM
same,TGI,IGROV1 ovarian,> 100 µM
same,TGI,ACHN renal,> 100 µM
same,TGI,OVCAR-3 ovarian,> 100 µM
same,TGI,786-0 renal,> 100 µM
same,TGI,SK-OV-3 ovarian,> 100 µM
O=C(CSCC(=O)N/N=C\c1cccc([N+](=O)[O-])c1)N/N=C\c1cccc([N+](=O)[O-])c1,TGI,SF-268 CNS,> 100 µM
same,TGI,HT29 colon,> 100 µM
same,TGI,KM12 colon,> 100 µM
same,TGI,LOX IMVI melanoma,> 100 µM
same,TGI,UO-31 renal,> 100 µM
same,TGI,A549 NSCLC,> 100 µM
same,TGI,IGROV1 ovarian,68.7 µM
same,TGI,ACHN renal,33.7 µM
same,TGI,OVCAR-3 ovarian,84.1 µM
same,TGI,786-0 renal,63.6 µM
same,TGI,SK-OV-3 ovarian,> 100 µM
O=C(c1ccc(Cl)cc1)c1ccc(OCCCOc2ccc(C(=O)c3ccc(Cl)cc3)cc2Cl)c(Cl)c1,TGI,HT29 colon,> 100 µM
same,TGI,KM12 colon,> 100 µM
same,TGI,LOX IMVI melanoma,> 100 µM
same,TGI,A549 NSCLC,> 100 µM
same,TGI,IGROV1 ovarian,> 100 µM
same,TGI,ACHN renal,> 100 µM
same,TGI,OVCAR-3 ovarian,> 100 µM
same,TGI,786-0 renal,> 100 µM
same,TGI,SK-OV-3 ovarian,> 100 µM
Cn1c2ccccc2c(=O)c2c(O)cc3c(c21)C=CC(C)(C)O3,TGI,SF-268 CNS,> 25 µM
same,TGI,HT29 colon,> 25 µM
same,TGI,KM12 colon,> 25 µM
same,TGI,LOX IMVI melanoma,> 25 µM
same,TGI,UO-31 renal,> 25 µM
same,TGI,A549 NSCLC,> 25 µM
same,TGI,IGROV1 ovarian,> 25 µM
same,TGI,OVCAR-3 ovarian,> 25 µM
same,TGI,SK-OV-3 ovarian,> 25 µM
COc1ccc(-c2c3c(n(C4OC(CO)C(O)C(O)C4O)c(=S)c2C#N)CCCC3)cc1 (stereo not given),TGI,HT29 colon,> 100 µM
same,TGI,KM12 colon,> 100 µM
same,TGI,LOX IMVI melanoma,> 100 µM
same,TGI,MDA-N,> 100 µM
same,TGI,A549 NSCLC,> 100 µM
same,TGI,IGROV1 ovarian,> 100 µM
same,TGI,ACHN renal,> 100 µM
same,TGI,OVCAR-3 ovarian,> 100 µM
same,TGI,786-0 renal,> 100 µM
same,TGI,SK-OV-3 ovarian,> 100 µM
CC(=O)NCC1OC2COC(c3ccccc3)OC2C(NC(=O)c2ccccc2)C1OC(=O)c1ccccc1 (stereo not given),TGI,SF-268 CNS,> 100 µM
same,TGI,HT29 colon,> 100 µM
same,TGI,KM12 colon,> 100 µM
same,TGI,LOX IMVI melanoma,> 100 µM
same,TGI,MDA-N,> 100 µM
same,TGI,UO-31 renal,> 100 µM
same,TGI,A549 NSCLC,> 100 µM
same,TGI,ACHN renal,> 100 µM
same,TGI,OVCAR-3 ovarian,> 100 µM
same,TGI,786-0 renal,> 100 µM
same,TGI,SK-OV-3 ovarian,> 100 µM
CC1=CC[C@@]2(C)CC[C@](O)(C(C)C)C2C(OC(=O)c2ccccc2)C1 (stereo not given in full),TGI,SF-268 CNS,51.7 µM
same,TGI,HT29 colon,32.7 µM
same,TGI,KM12 colon,40.3 µM
same,TGI,LOX IMVI melanoma,42 µM
same,TGI,UO-31 renal,32.6 µM
same,TGI,A549 NSCLC,37.3 µM
same,TGI,IGROV1 ovarian,30.6 µM
same,TGI,ACHN renal,32.1 µM
same,TGI,OVCAR-3 ovarian,31.8 µM
same,TGI,786-0 renal,33.4 µM
same,TGI,SK-OV-3 ovarian,28.8 µM
COc1cccc(C2SC(N)=Nc3c2c(C)nn3C(=O)Cc2ccccc2)c1 (stereo not given),TGI,SF-268 CNS,> 100 µM
same,TGI,HT29 colon,> 100 µM
same,TGI,KM12 colon,> 100 µM
same,TGI,LOX IMVI melanoma,> 100 µM
same,TGI,MDA-N,> 100 µM
same,TGI,UO-31 renal,> 100 µM
same,TGI,A549 NSCLC,> 100 µM
same,TGI,IGROV1 ovarian,> 100 µM
same,TGI,ACHN renal,> 100 µM
same,TGI,786-0 renal,> 100 µM
same,TGI,SK-OV-3 ovarian,> 100 µM
OC(CN(CCCl)CCCl)C(O)C(O)C(O)CN(CCCl)CCCl (stereo not given),TGI,SF-268 CNS,> 100 µM
same,TGI,HT29 colon,> 100 µM
same,TGI,KM12 colon,> 100 µM
same,TGI,LOX IMVI melanoma,> 100 µM
same,TGI,UO-31 renal,> 100 µM
same,TGI,A549 NSCLC,> 100 µM
same,TGI,IGROV1 ovarian,> 100 µM
same,TGI,ACHN renal,17.3 µM
same,TGI,OVCAR-3 ovarian,> 100 µM
same,TGI,786-0 renal,> 100 µM
same,TGI,SK-OV-3 ovarian,> 100 µM
C=C1C(=O)O[C@H]2C1C[C@@H](OC(C)=O)/C(C)=C/CC[C@@]1(C)O[C@H]21 (stereo not given in full),TGI,HT29 colon,41.5 µM
same,TGI,KM12 colon,44.2 µM
same,TGI,LOX IMVI melanoma,19.1 µM
same,TGI,MDA-N,18.7 µM
same,TGI,UO-31 renal,17 µM
same,TGI,A549 NSCLC,> 100 µM
same,TGI,IGROV1 ovarian,21.2 µM
same,TGI,ACHN renal,15.2 µM
same,TGI,786-0 renal,23.9 µM
same,TGI,SK-OV-3 ovarian,64 µM
C=CC1CN(C(=O)OCC)N(C(=O)OCC)C1CCc1ccccc1 (stereo not given),TGI,SF-268 CNS,> 100 µM
same,TGI,HT29 colon,> 100 µM
same,TGI,KM12 colon,> 100 µM
same,TGI,LOX IMVI melanoma,> 100 µM
same,TGI,MDA-N,> 100 µM
same,TGI,UO-31 renal,> 100 µM
same,TGI,A549 NSCLC,> 100 µM
same,TGI,IGROV1 ovarian,> 100 µM
same,TGI,ACHN renal,> 100 µM
same,TGI,786-0 renal,> 100 µM
same,TGI,SK-OV-3 ovarian,> 100 µM
CSCSCC(CO)NC(=O)/C(C)=C\c1c(C)[nH]c(=O)[nH]c1=O (stereo not given),TGI,SF-268 CNS,> 250 µM
same,TGI,HT29 colon,> 250 µM
same,TGI,KM12 colon,> 250 µM
same,TGI,LOX IMVI melanoma,> 250 µM
same,TGI,UO-31 renal,> 250 µM
same,TGI,A549 NSCLC,> 250 µM
same,TGI,IGROV1 ovarian,> 250 µM
same,TGI,OVCAR-3 ovarian,> 250 µM
same,TGI,SK-OV-3 ovarian,> 250 µM
CCOC(=O)/C(=N/Nc1ccccc1)N1C(=S)C=C(C)NN(C)C1=S,TGI,SF-268 CNS,> 100 µM
same,TGI,HT29 colon,> 100 µM
same,TGI,KM12 colon,> 100 µM
same,TGI,UO-31 renal,> 100 µM
same,TGI,A549 NSCLC,> 100 µM
same,TGI,IGROV1 ovarian,> 100 µM
same,TGI,ACHN renal,> 100 µM
same,TGI,OVCAR-3 ovarian,> 100 µM
same,TGI,SK-OV-3 ovarian,> 100 µM
O=C1/C(=C/c2ccccc2[N+](=O)[O-])N=C(c2ccccc2)N1c1nc2ccccc2s1,TGI,SF-268 CNS,60.4 µM
same,TGI,HT29 colon,> 100 µM
same,TGI,KM12 colon,43.5 µM
same,TGI,LOX IMVI melanoma,56.8 µM
same,TGI,MDA-N,71.9 µM
same,TGI,UO-31 renal,> 100 µM
same,TGI,A549 NSCLC,> 100 µM
same,TGI,IGROV1 ovarian,33.7 µM
same,TGI,ACHN renal,82.1 µM
same,TGI,OVCAR-3 ovarian,51.9 µM
same,TGI,786-0 renal,58.8 µM
Cc1c(N=C/C=C/c2ccccc2)c(=O)n(-c2ccccc2)n1C,TGI,SF-268 CNS,> 100 µM
same,TGI,HT29 colon,> 100 µM
same,TGI,KM12 colon,77.2 µM
same,TGI,LOX IMVI melanoma,25 µM
same,TGI,MDA-N,54 µM
same,TGI,UO-31 renal,> 100 µM
same,TGI,A549 NSCLC,> 100 µM
same,TGI,IGROV1 ovarian,> 100 µM
same,TGI,ACHN renal,> 100 µM
same,TGI,OVCAR-3 ovarian,67.9 µM
same,TGI,SK-OV-3 ovarian,> 100 µM
NC1CCC(N(CC(=O)O)CC(=O)O)C(N(CC(=O)O)CC(=O)O)C1 (stereo not given),TGI,SF-268 CNS,> 100 µM
same,TGI,HT29 colon,> 100 µM
same,TGI,KM12 colon,> 100 µM
same,TGI,LOX IMVI melanoma,> 100 µM
same,TGI,MDA-N,> 100 µM
same,TGI,UO-31 renal,> 100 µM
same,TGI,A549 NSCLC,> 100 µM
same,TGI,IGROV1 ovarian,> 100 µM
same,TGI,ACHN renal,> 100 µM
same,TGI,OVCAR-3 ovarian,> 100 µM
same,TGI,SK-OV-3 ovarian,> 100 µM
Cn1cc2ccccc2c1-c1nc(F)nc(Oc2ccc3c(c2)CC[C@@H]2C3CC[C@@]3(C)C2C[C@H](O)[C@@H]3O)n1 (stereo not given in full),TGI,SF-268 CNS,36.8 µM
same,TGI,HT29 colon,40.5 µM
same,TGI,KM12 colon,36.1 µM
same,TGI,UO-31 renal,32.3 µM
same,TGI,A549 NSCLC,34.1 µM
same,TGI,IGROV1 ovarian,45.4 µM
same,TGI,ACHN renal,47.6 µM
same,TGI,OVCAR-3 ovarian,78.8 µM
same,TGI,786-0 renal,31.3 µM
same,TGI,SK-OV-3 ovarian,52.2 µM
